This passage reports IC50 results from patent US10711000B2 (Fronthera U.S. Pharmaceuticals LLC, priority 2018, dated 2020).

pIC50: −log10 of the molar value. Read-outs that look alike come from different tables or passages of the source. Some results are limits rather than exact numbers.

A word on the pIC50: it is −log10 of the IC50, conventionally taken in molar units.

For this test, the target named is T1, Autotaxin (Homo sapiens, UniProt Q13822).
T1 construct: from tissue; host or cells: pooled human plasma
The test is described as follows: LPA formation in pooled human plasma (ex vivo autotaxin inhibition). Type of test: biochemical. To be noted: 2 hours incubation. In a few lines: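 Ex vivo: LPA 18:2 and 20:4 levels in compound-treated versus untreated pooled human plasma after 2 h incubation, measured by butanol extraction and negative-mode MRM LC/MS/MS against calibration standards. IC50 from non-linear fit of inhibition versus concentration.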

Setting [1] is: LPA 18:2 by LC/MS/MS, read-out: LPA formation (18:2) (IC50).
Where [2] appears, read: LPA 20:4 by LC/MS/MS, read-out: LPA formation (20:4) (IC50).

Take `CCc1nn2c(C)cc(N3CCC4(CN(C(=O)CO)C4)C3)cc2c1N(C)c1nc(-c2ccc(F)cc2)c(C#N)s1` [Example 52, 2-((2-ethyl-5-(2-(2-hydroxyacetyl)-2,6-diazaspiro[3.4]octan-6-yl)-7-methylpyrazolo[1,5-a]pyridin-3-yl)(methyl)amino)-4-(4-fluorophenyl)thiazole-5-carbonitrile]: the pIC50 under setting [1] is 6.30 to 7.00 and the negative-log IC50 (pIC50) under setting [2] is 6.30 to 7.00.

For `CCc1nn2c(C)cc(N3CCC4(CN(C[C@H](O)CO)C4)C3)cc2c1N(C)c1nc(-c2ccc(F)cc2)c(C#N)s1` [Example 68, (S)-2-((5-(2-(2,3-dihydroxypropyl)-2,6-diazaspiro[3.4]octan-6-yl)-2-ethyl-7-methylpyrazolo[1,5-a]pyridin-3-yl)(methyl)amino)-4-(4-fluorophenyl)thiazole-5-carbonitrile], the pIC50 is, setting by setting: under setting [1], 6.30 to 7.00; under setting [2], 6.30 to 7.00.

Regarding `Cc1cc(N2CC(C#N)C2)cc2c(N(C)c3nc(-c4ccc(F)cc4)c(C#N)s3)c(C3CC3)nn12` [Example 88, 2-[[5-(3-cyanoazetidin-1-yl)-2-cyclopropyl-7-methyl-pyrazolo[1,5-a]pyridin-3-yl]-methyl-amino]-4-(4-fluorophenyl)thiazole-5-carbonitrile], the pIC50 reads like this: under setting [1], less than 6.00; under setting [2], less than 6.00.

As for `CCc1nn2ccc(N3CCC4(CCN(C(=O)N5CC(O)C5)CC4)C3)cc2c1N(C)c1nc(-c2ccc(F)cc2)c(C#N)s1` [Example 17, 2-((2-ethyl-5-(8-(3-hydroxyazetidine-1-carbonyl)-2,8-diazaspiro[4.5]decan-2-yl)pyrazolo[1,5-a]pyridin-3-yl)(methyl)amino)-4-(4-fluorophenyl)thiazole-5-carbonitrile], the pIC50 reads like this: under setting [1], no less than 7.00; under setting [2], no less than 7.00.

As for `CCc1nn2c(C)cc(N3CC4(CN(C(=O)[C@H]5CCOC5)C4)C3)cc2c1N(C)c1nc(-c2ccc(F)cc2)c(C#N)s1` [Example 39, (S)-2-((2-ethyl-7-methyl-5-(6-(tetrahydrofuran-3-carbonyl)-2,6-diazaspiro[3.3]heptan-2-yl)pyrazolo[1,5-a]pyridin-3-yl)(methyl)amino)-4-(4-fluorophenyl)thiazole-5-carbonitrile], the pIC50 was no less than 7.00 under setting [1] and no less than 7.00 under setting [2].

For the compound `CCc1nn2c(C)cc(N3CC4(CCN(C(=O)[C@H]5CCOC5)C4)C3)cc2c1N(C)c1nc(-c2ccc(F)cc2)c(C#N)s1` [Example 45, (S)-2-((2-ethyl-7-methyl-5-(6-(tetrahydrofuran-3-carbonyl)-2,6-diazaspiro[3.4]octan-2-yl)pyrazolo[1,5-a]pyridin-3-yl)(methyl)amino)-4-(4-fluorophenyl)thiazole-5-carbonitrile], the pIC50 reads like this: under setting [1], no less than 7.00; under setting [2], no less than 7.00.

With `Cc1cc(N2CCN(CC(N)=O)CC2)cc2c(N(C)c3nc(-c4ccc(F)cc4)c(C#N)s3)c(C3CC3)nn12` [Example 79], the negative logarithm of the IC50 (pIC50) was 6.00 to 6.30 under setting [1] and 6.00 to 6.30 under setting [2].

On to `CCc1nn2c(C)cc(N3CCN(CC(=O)N4CC[C@@H](O)C4)CC3)cc2c1N(C)c1nc(-c2ccc(F)cc2)c(C#N)s1` [Example 25, (R)-2-((2-ethyl-5-(4-(2-(3-hydroxypyrrolidin-1-yl)-2-oxoethyl)piperazin-1-yl)-7-methylpyrazolo[1,5-a]pyridin-3-yl)(methyl)pamino)-4-(4-fluorophenyl)thiazole-5-carbonitrile], for which the pIC50 is no less than 7.00 under setting [1] and no less than 7.00 under setting [2].

For the compound `CCn1nc2ncc(N3CC4(CN(C(=O)C5(O)CCOCC5)C4)C3)cc2c1N(C)c1nc(-c2ccc(F)cc2)c(C#N)s1` [Compound 116, 2-((2-ethyl-5-(6-(4-hydroxytetrahydro-2H-pyran-4-carbonyl)-2,6-diazaspiro[3.3]heptan-2-yl)-2H-pyrazolo[3,4-b]pyridin-3-yl)(methyl)amino)-4-(4-fluorophenyl)thiazole-5-carbonitrile], the pIC50 reads like this: under setting [1], no less than 7.00; under setting [2], no less than 7.00.
